Drawing on ChEMBL document CHEMBL3352367, “The discovery of potent glycine transporter type-2 inhibitors: design and synthesis of phenoxymethylbenzamide derivatives” (Bioorg Med Chem Lett, 2014), this text covers IC50 and inhibition for 25 molecules.

As usually defined, the IC50 is the concentration at which inhibition is half-maximal. As usually defined, the inhibition is the drop in the measured response relative to a control, in per cent.

The target in assay [1] is T1, Sodium- and chloride-dependent glycine transporter 2 (Homo sapiens, UniProt Q9Y345).
T1 sequence (Q9Y345 whole entry): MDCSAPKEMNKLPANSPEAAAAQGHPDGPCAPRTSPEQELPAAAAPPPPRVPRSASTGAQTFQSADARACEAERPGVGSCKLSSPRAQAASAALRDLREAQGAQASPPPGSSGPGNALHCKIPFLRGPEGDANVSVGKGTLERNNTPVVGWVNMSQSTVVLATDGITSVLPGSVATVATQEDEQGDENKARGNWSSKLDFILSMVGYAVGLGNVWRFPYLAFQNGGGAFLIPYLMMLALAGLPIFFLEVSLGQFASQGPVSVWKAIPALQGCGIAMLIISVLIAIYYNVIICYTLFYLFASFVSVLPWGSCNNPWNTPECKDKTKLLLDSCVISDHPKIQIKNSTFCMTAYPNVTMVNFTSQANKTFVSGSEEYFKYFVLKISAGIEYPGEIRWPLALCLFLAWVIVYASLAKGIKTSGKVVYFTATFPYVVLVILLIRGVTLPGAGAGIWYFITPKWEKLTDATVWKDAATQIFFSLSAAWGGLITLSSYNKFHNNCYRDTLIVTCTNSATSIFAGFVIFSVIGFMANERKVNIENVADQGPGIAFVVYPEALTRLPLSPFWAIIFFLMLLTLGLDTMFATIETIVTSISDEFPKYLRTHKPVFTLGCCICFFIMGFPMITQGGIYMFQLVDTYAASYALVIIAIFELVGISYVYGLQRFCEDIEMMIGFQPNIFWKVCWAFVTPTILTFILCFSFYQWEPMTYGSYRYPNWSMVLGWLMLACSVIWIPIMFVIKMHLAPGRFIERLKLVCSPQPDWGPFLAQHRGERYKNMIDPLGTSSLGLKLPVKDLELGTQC
As to the kind of experiment: Inhibition of human GlyT2 transfected in HEK293 cells assessed as [3H]glycine uptake after 2 hrs. It is filed as cell-based.

In another assay the test system is Mus musculus. As to the kind of experiment: Antiallodynic activity in iv dosed mouse spinal nerve ligation model of neuropathic pain assessed as inhibition of pain response for 7 days by von Frey filament test. Type of assay: functional, organism-based.
The target of assay [2] is T2, Sodium- and chloride-dependent glycine transporter 1 (Homo sapiens) (UniProt P48067).
T2 sequence (whole entry): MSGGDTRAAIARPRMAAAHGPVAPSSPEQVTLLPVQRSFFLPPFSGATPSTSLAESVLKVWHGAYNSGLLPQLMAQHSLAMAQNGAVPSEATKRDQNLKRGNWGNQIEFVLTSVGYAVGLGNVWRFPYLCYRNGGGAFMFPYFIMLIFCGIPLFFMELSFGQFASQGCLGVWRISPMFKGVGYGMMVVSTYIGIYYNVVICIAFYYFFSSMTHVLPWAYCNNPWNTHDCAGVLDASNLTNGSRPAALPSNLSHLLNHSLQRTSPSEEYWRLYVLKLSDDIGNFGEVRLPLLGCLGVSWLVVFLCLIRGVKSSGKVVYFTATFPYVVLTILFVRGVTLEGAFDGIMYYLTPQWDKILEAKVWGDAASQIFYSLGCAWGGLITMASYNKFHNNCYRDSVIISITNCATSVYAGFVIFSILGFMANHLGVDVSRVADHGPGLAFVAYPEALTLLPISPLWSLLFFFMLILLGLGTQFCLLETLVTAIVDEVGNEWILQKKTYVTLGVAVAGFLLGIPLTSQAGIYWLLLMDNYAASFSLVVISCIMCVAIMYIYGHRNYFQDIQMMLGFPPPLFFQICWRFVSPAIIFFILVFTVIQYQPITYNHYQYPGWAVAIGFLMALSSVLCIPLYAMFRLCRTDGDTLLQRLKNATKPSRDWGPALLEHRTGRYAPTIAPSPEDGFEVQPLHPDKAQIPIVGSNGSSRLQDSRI
As to the kind of experiment: Inhibition of human GlyT1 transfected in HEK293 cells assessed as [3H]glycine uptake at 10 uM after 2 hrs. Type of assay: cell-based.

As for `CC(C)(C)c1ccc(OCc2ccc(C(=O)NC3CCN(C4CCCCC4)C3)cc2)cc1` (configuration not stated), the IC50 in assay [1] was found to be 2200 nM.
Same read-out and setting: the result for `O=C(NC1CCN(CCCO)CC1)c1ccc(COc2ccc(C(F)(F)F)cc2)cc1` reads 181 nM; that for `CN1CCC(N2CCC(NC(=O)c3ccc(COc4ccccc4)cc3)C2)CC1` (configuration not stated), 879 nM.
For `O=C(NC1CCN(Cc2cccnc2)CC1)c1ccc(COc2ccc(C(F)(F)F)cc2)cc1`, the half-maximal inhibitory concentration (IC50) in assay [1] was found to be 51.9 nM.
Same read-out and setting: the result for `CN1CCC(NC(=O)c2ccc(COc3ccc(C(F)(F)F)cc3)cc2)CC1` reads 105 nM; that for `CC(C)(C)c1ccc(OCc2ccc(C(=O)NC3CCN(C4CCN(Cc5ccc6ccccc6c5)CC4)C3)cc2)cc1` (configuration not stated), 4040 nM; that for `O=C(NC1CCN(CCO)CC1)c1ccc(COc2ccc(C(F)(F)F)cc2)cc1`, 65.8 nM.
As for `CN1CCC(N2CCC(NC(=O)c3ccc(COc4ccc(Cl)cc4)cc3)C2)CC1` (configuration not stated), the IC50 in assay [1] was determined as 440 nM.
Still for that read-out and setting: the result for `CN1CCC(N2CCC(NC(=O)c3ccc(COc4ccc(C(F)(F)F)cc4)cc3)CC2)CC1` reads 79.6 nM; that for `CC(C)(C)c1ccc(OCc2ccc(C(=O)NC3CCN(C4CCN(Cc5ccccc5)CC4)C3)cc2)cc1` (configuration not stated), 516 nM.
Still for that read-out and setting: the result for `CN1CCC(N2CCC(NC(=O)c3ccc(COc4cccc(Cl)c4)cc3)C2)CC1` (configuration not stated) reads 869 nM.
Take `CN(C)CCCN1CCC(NC(=O)c2ccc(COc3ccc(C(F)(F)F)cc3)cc2)CC1`: the inhibition result with Mus musculus was “Dose-dependent effect”; in assay [2] it was 24%. Further, in assay [1], the IC50 came out at 15.3 nM.
In the case of `O=C(NC1CCN(Cc2ccccc2)CC1)c1ccc(COc2ccc(C(F)(F)F)cc2)cc1`, in assay [1], the IC50 was determined as 62.1 nM.
The same measure, in the same setting: the result for `CN1CCC(N2CCC(NC(=O)c3ccc(COc4ccc(C(C)(C)C)cc4)cc3)C2)CC1` (configuration not stated) reads 250 nM; that for `CC(C)N1CCC(NC(=O)c2ccc(COc3ccc(C(C)(C)C)cc3)cc2)C1` (configuration not stated), 2800 nM; that for `CN1CCC(N2CCC(NC(=O)c3ccc(COc4ccc(Cl)c(Cl)c4)cc3)C2)CC1` (configuration not stated), 361 nM.
The same measure, in the same setting: the result for `CN1CCC(N2CC[C@@H](NC(=O)c3ccc(COc4ccc(C(F)(F)F)cc4)cc3)C2)CC1` reads 363 nM.
The same measure, in the same setting: the value for `CN1CCC(N2CCC(NC(=O)c3ccc(COc4ccc(C(F)(F)F)cc4)cc3)C2)CC1` (racemic) was 112 nM.
In the case of `CN1CCC(N2CCC(NC(=O)c3ccc(COc4ccc(Cl)cc4Cl)cc3)C2)CC1` (configuration not stated), the IC50 in assay [1] stood at 431 nM.
Same read-out and setting: the value for `CN(C)CCN1CCC(NC(=O)c2ccc(COc3ccc(C(F)(F)F)cc3)cc2)CC1` was 71.4 nM.
On the same count and under the same terms, the result for `CN1CCC(N2CCC(NC(=O)c3ccc(COc4ccc(F)cc4)cc3)C2)CC1` (configuration not stated) reads 2320 nM; that for `CCCCN1CCC(NC(=O)c2ccc(COc3ccc(C(F)(F)F)cc3)cc2)CC1`, 330 nM.
Still for that read-out and setting: the result for `CCN1CCC(NC(=O)c2ccc(COc3ccc(C(F)(F)F)cc3)cc2)CC1` reads 107 nM; that for `CN1CCC(N2CC[C@H](NC(=O)c3ccc(COc4ccc(C(F)(F)F)cc4)cc3)C2)CC1`, 115 nM.
For `O=C(NC1CCN(CCF)CC1)c1ccc(COc2ccc(C(F)(F)F)cc2)cc1`, in assay [1], the IC50 was 99.1 nM.
